Source: patent US8916607B2, “Use of piperphentonamine or salts thereof in manufacture of medicaments for treating brain diseases” (Guangzhou Municipal Zhongwei Biotechnology Limited Company, priority 2009, dated 2014)
Marks after values point to notes of the source that are not given here.

Tests used:
[1] = tested on: cerebral ischemia/reperfusion injury in mice; assay: focal cerebral ischemia reperfusion injury model in mice (suture method), TTC infarction area; format: in vivo
Description: Focal cerebral ischemia reperfusion injury model is made in mice by using suture method, being ischemia for 2 h, then reperfusing for 24 h, and it proves that piperphentonamine hydrochloride has protective effect on ischemia-reperfusion cerebral injury.
Mouse is anesthetized by injecting 10% chloral hydrate (350 mg/kg) in intraperitoneal, being intravenously administered 1 mg/kg, 5 mg/kg piperphentonamine hydrochloride or 20 u/kg coenzyme A, (COA), making the cerebral artery ischemia like as the method of example 6. Pulling out nylon thread from the internal carotid artery after the operation in 2 hours, until the end of the nylon thread is at bifurcation of the common carotid artery. Reperfusing for 24 hours. Except for not inserting a thread, the rest of steps for the false operation group are same as the above-mentioned. After reperfusion for 24 h, decapitating and taking the brain of survived mice, rapidly putting in −20° C. freezer for 5 min, then removing, quickly cutting coronal slices of 2.0 mm thickness from forward to back on the operating table, putting the slices in phosphate buffer solution with 1% TTC immediately, incubating for 30 min in avoiding light at room temperature. Flip brain slices to make them touch staining solution uniformly every 10 minute, and scanning and observing the dyeing results.
The local cerebral ischemia model of mice was established by using thread bolt method, to validate that piperphentonamine acetate has protective effect on experimental cerebral ischemia animal.

[2] = tested on: cerebral hemorrhage in rats induced by collagenase; assay: cerebral hemorrhage (ICH) model induced by collagenase: neurology score; format: in vivo, Wistar rats; settings: 0.5 mg/kg iv 30 min before ICH
Description: (§1) Animals are randomly divided into five groups: sham operation 24 h group; cerebral hemorrhage (Intracerebral Haemorrhage, ICH)+physiological saline group (model); ICH+piperphentonamine hydrochloride (JBTA, 2 mg/kg) group, called as high dose group (h); ICH+piperphentonamine hydrochloride (JBTA, 0.5 mg/kg) group, called as low dose group (1); ICH+nimodipine (Nim, 0.5 mg/kg) group. The last four groups are divided into 4 h, 8 h, 12 h, 24 h as four time subgroups respectively. Physiological saline solution, piperphentonamine hydrochloride and nimodipine are intravenously injected from rat tail before the ICH model is established for 30 minutes, once a day. Injecting slowly, the total amount of drug liquid is controlled in 1 ml/200 g body weight: physiological saline solution also being administered in 1 ml/200 g body weight. Each group has 7 Wistar rats.
The specific steps are as following: after the experimental rats are anesthetized by injecting chloral hydrate (350 mg/kg) in intraperitoneal, and being supinely immobilized in a stereotaxic instrument, and make the rat anterior fontanelle and posterior fontanelle in the same plane according to localization method reported by BAO Xinmin, etc. Being locally disinfected by iodine, incising in the midmost of scalp, scissoring the periosteum, exposing the anterior fontanelle, drilling a 1 mm diameter hole with thickness close to duramater in 3 mm left to the midline by number five needle. Inserting needle along the hole by the micro syringe fixed on a stereotaxic, the depth of needle insertion is 5.8 mm (i.e., the caudate nucleus position), slowly injecting collagenase VI 0.5 U. Injection time is 3 min, keeping for 5 min after injection, then pull the needle out, suturing the skin, and putting the rat into cage and feed. Inserting the needle and not injecting drugs in sham operation group, the remaining operations is the same as the above.
After animals wake up, scoring nerve function defect of each group immediately according to the grading classification standards of nerve defect reported by Bedersog (litter improved).
Choosing the animals with the score of 3 and more into the experiment, the animals are bred in different cages, eat and drink normally. Temperature is controlled in 20 to 25° C., score in 4 h, 8 h, 12 h, 24 h after establishment of the model.
(§2) Divide the animals randomly into five groups: sham operation (sham) 24 h group; ICH+normal saline group (model); ICH+piperphentonamine maleate (4 mg/kg) group, namely high dose group (h); ICH+piperphentonamine maleate (2 mg/kg) group, namely low dose group (1); ICH+nimodipine (0.5 mg/kg) group. The last four groups were divided into four time subgroup of 4 h, 8 h, 12 h and 24 h. Physiological solution, piperphentonamine maleate and nimodipine were injected intravenous from rat tail vein 30 minutes before the ICH model made, once a day. Inject slowly, the total amount of drug liquid was controlled in 1 ml/200 g body weight: normal saline was also administered in 1 ml/200 g body weight. Each group has seven Wistar rats.

[3] = tested on: cerebral hemorrhage in rats induced by collagenase; assay: ICH model induced by collagenase: NO in brain tissue by nitrate reductase method; format: in vivo, Wistar rats; settings: 0.5 mg/kg; ICH rat brain tissue
Source text: (§3) Rats in each group were anesthetized by chloral hydrate, decollated rapidly and the brain take were taken out. The brain tissue around the hole was cut and procured, weighed precisely, and made into a 10% tissue homogenate using a glass homogenizer in an ice bath environment with physiological saline as homogenized medium, the supernatant of which was taken to be determined the content of NO by nitrate reductase method.

[4] = tested on: cerebral hemorrhage in rats induced by collagenase; assay: ICH model induced by collagenase: brain water content (BWC); format: in vivo, Wistar rats; settings: 0.5 mg/kg iv 30 min before ICH
Description: as §1
Observing the influence of piperphentonamine hydrochloride on the brain water content of intracerebral hemorrhage in rats in 4 h, 8 h, 12 h, 24 h, the animals of the different groups is anesthetized by chloral hydrate at predetermined time point, and decollating and taking the brain rapidly, putting the brain tissue on a filter paper wetted by saline solution to prevent water evaporating. Removing the leptomeninges and blood, cutting and taking the front half portion of brain tissue centered by the hole for the insertion needle, weighing precisely (accurate to 0.1 mg). It is controlled in 5 min to take the brain to finish weigh. Then putting in 95° C. constant temperature oven for 24 h, weighing the dry weight. The brain water content is calculated according to Blliot formula: BWC=(wet weight−dry weight)/wet weight×100%.
as §2

[5] = tested on: infectious cerebral edema of rats (pertussis bacteria liquid); assay: infectious cerebral edema: brain water content and Evans blue content, combination with nimodipine; format: in vivo, SD rats; settings: JBTA pretreatment 0.5 mg/kg iv, 2 times
Description: The model of infectious cerebral edema is same with example 4. It is Studied that piperphentonamine hydrochloride and a blocker for specificity L-type calcium ion channel nimodipine influence on the brain water content and Evans blue (EB) content of infectious cerebral edema, of which the purpose is to provide experimental and theoretical basis for clinical treatment.
Each group is further divided into three time group such as 30 min, 4 h and 24 h group.
Injecting intravenously nimodipine after injecting bacteria for 5 min (Nim group, body weight 0.25 mg/kg), 24 h nimodipine treatment group is repeatedly injected the same dose once per 8 h; nimodipine treatment group pretreated by piperphentonamine hydrochloride is intravenously infused piperphentonamine hydrochloride (0.5 mg/kg, 2 times in total) before experimenting for 48 h and 24 h, then treated with nimodipine after the pretreatment. The operation of physiological saline group being same as bacteria liquid group, is injected the same volume of physiological saline at the same time. 2% Evans blue (EB, 0.2 mL/100 g body weight) is injected from the vein of the sublingua after injecting bacteria or saline in 10 min. Each group of animal is executed by decollating after observing to the specified time, rapidly removed the brain, and remove the leptomeninges and coagulation block of the cortical surface, taking full-thickness brain tissue of the back ⅓ of left hemisphere of the brain (about 0.1˜0.2 g, including gray matter and white matter) as specimens, the water content in brain tissue and the Evans blue content are determined by the dry wet method, and brain tissue is examined by electron microscope.

[6] = tested on: cerebral hemorrhage in rats induced by collagenase; assay: ICH model induced by collagenase: NE in brain tissue by ELISA; format: in vivo, Wistar rats; settings: 0.5 mg/kg; ICH rat brain tissue homogenate
Source text: as §3, with “brains” for “brain take”, “NE activity using ELISA” for “content of NO by nitrate reductase”

[7] = tested on: infective brain edema of rats (pertussis bacteria liquid); assay: infective cerebral edema by pertussis bacteria liquid: brain water, sodium and potassium ion content; format: in vivo, SD rats; design: Na^+ / K^+: unit not given here; settings: pretreatment 0.5 mg/kg ip daily for 2 days; 4 h after bacterial liquid
[8] = tested on: infective brain edema of rats (pertussis bacteria liquid); assay: infective cerebral edema: IL-1β, TNF-α (ELISA) and NO (Griess) in cerebral tissue; format: in vivo, SD rats; settings: pretreatment 0.5 mg/kg ip daily for 2 days; rat brain tissue, 4 h
Description: Determine the content of IL-1β, TNF-α and NO by using ELISA and Griess method.
Model preparation was same as that of example 4. Piperphentonamine acetate group was intraperitoneally injected with 0.5 mg/kg daily for 2 days 48 h before the injection of pertussis bacterial liquid. Rats in each group were decollated after being injected with bacterial liquid or saline 4 h. ELISA method and Griess method were used to measure the content of IL-1β, TNF-α and NO in brain homogenate of infectious brain edema model of rats.

[9] = tested on: cerebral edema of mice caused by closed cerebral trauma; assay: closed cerebral trauma model of mice, brain water content; format: in vivo, Kunming mice; settings: method as example 2
Description: There were 10 mice in each group.
The closed cerebral trauma model of mice being established after fasting for 16 hours, administering intravenously to each group, striping and taking the brain of mouse after 24 hours, weighing the wet weight, and drying at 70° C. for 24 hours, then weighing the dry weight, and calculating brainwater content; the brain water content which is higher than normal values indicates the cerebral edema.
The grouping method, administer method and model preparation were referred to example 2.

[10] = tested on: cultured cerebral neurons; assay: NMDA induces neuron injury in primary cultured neurons; format: cell-based, rat; settings: drug 50 mmol/L; NMDA 50 mmol/L, 12 h
[11] = 24 h, Nim 0.25 mg/kg iv once per 8 h

## Nc1ncnc2c1ncn2[C@@H]1O[C@H](COP(=O)(O)OP(=O)(O)OP(=O)(O)O)[C@@H](O)[C@H]1O [ATP, reference compound]
[1]; 5 mg/kg, method as example 7 (example 16)
  The percentage of infarction area occupied the entire coronal plane (%): 20.53 ± 4.82 %

## CC(C)(COP(=O)(O)OP(=O)(O)OC[C@H]1O[C@@H](n2cnc3c(N)ncnc32)[C@H](O)[C@@H]1OP(=O)(O)O)[C@@H](O)C(=O)NCCC(=O)NCCS [CoA, coenzyme A, reference compound]
[1]; 20 U/kg iv, ischemia 2 h, reperfusion 24 h
  The percentage of infarction area occupied the entire coronal plane (%): 20.53 ± 4.82 %

## CC1=NN(c2ccccc2)C(=O)C1 [Edaravone Injection, edaravone, reference compound]
[1]; 3 mg/kg, method as example 7 (example 16)
  The percentage of infarction area occupied the entire coronal plane (%): 18.43 ± 3.56 %

## COCCOC(=O)C1=C(C)NC(C)=C(C(=O)OC(C)C)C1c1cccc([N+](=O)[O-])c1 (stereo not shown) [nimodipine, reference compound]
[2]; 4 h
  neurological score: 4.5 ± 0.87
[2]; 4 h (example 12)
  neurological score: 3.65 ± 0.8
[2]; 8 h
  neurological score: 4.07 ± 1.14
[2]; 8 h (example 12)
  neurological score: 3.25 ± 0.91
[2]; 12 h
  neurological score: 2.57 ± 1.14
[2]; 12 h (example 12)
  neurological score: 2.05 ± 0.91
[2]; 24 h
  neurological score: 1.94 ± 0.74
[2]; 24 h (example 12)
  neurological score: 1.55 ± 0.59**^Δ
[3]
  NO: 2.40 ± 0.05^Δ μmol/g pro
[4]; 4 h
  brain water content (%): 79.31 ± 0.76 %
[4]; 4 h (example 12), in %
  brain water content: 62.20 ± 0.59
[4]; 8 h
  brain water content (%): 79.95 ± 0.36^Δ** %
[4]; 8 h (example 12)
  brain water content: 62.70 ±0.25^Δ**
[4]; 12 h
  brain water content (%): 81.35 ± 0.71^ΔΔ** %
[4]; 12 h (example 12)
  brain water content: 63.8 ± 0.56^ΔΔ**
[4]; 24 h
  brain water content (%): 82.89 ± 0.68^ΔΔ** %
[4]; 24 h (example 12)
  brain water content: 65.02 ± 0.54^ΔΔ**
[5]; 30 min, Nim 0.25 mg/kg iv
  BWC(%): 77.26 ± 0.34 %
  EB: 2.0 ± 0.18 μg/g ww
[5]; 4 h, Nim 0.25 mg/kg iv
  BWC(%): 77.15 ± 0.66 %
  EB: 2.65 ± 0.44 μg/g ww
[5]; [11]
  BWC(%): 76.98 ± 0.50 %
  EB: 2.00 ± 0.6 μg/g ww
[6]
  NE: 1.88 ± 0.035^a ng/ml

## CC(=O)O.CN(CCC(=O)/C=C/c1ccc(O)cc1)CCc1ccc2c(c1)OCO2 [piperphentonamine acetate]
[1]; 4 mg/kg, thread bolt method (example 15)
  The percentage of infarction area occupied the entire coronal plane (%): 18.12 ± 2.64^ΔΔ %
[7]
  K^+: 396.6 ± 39.9
  Na^+: 164.7 ± 23.7
  brain water content (%): 63.44 ± 0.4^3) %
[8]
  IL-1β: 197.1 ± 27.1^2)3) pg/g
  NO: 53.3 ± 3.71^2)3) nmol/g
  TNF-α: 309.3 ± 83.5^2)3) pg/g

## CN(CCC(=O)/C=C/c1ccc(O)cc1)CCc1ccc2c(c1)OCO2.O=C(O)CC(O)(CC(=O)O)C(=O)O [piperphentonamine citrate]
[1]; treated group (C), dose not given, model as example 7
  The percentage of infarction area occupied the entire coronal plane (%): 16.88 ± 2.48**^ΔΔ %
[9]; 2 mg/kg
  brain water content (%): 80.32 ± 7.72 %
[9]; 4 mg/kg
  brain water content (%): 78.84 ± 9.48 %
[9]; 8 mg/kg
  brain water content (%): 75.28 ± 6.48 %

## Ganglioside [GM, reference compound]
[10]
  morphological change of culture neuron (protection function): equal to the one of piperphentonamine hydrochloride 10 mmol/L
  mortality: 40%
